In paper PMC12074596, “The histone deacetylase inhibitor CT-101 flips the switch to fetal hemoglobin expression in sickle cell disease mice” (PLOS One, 2025):

Experiments:
HbF expression = tested on: HbF expression; set-up: method as in PMID 26045597; details: adults with SCD; cited from earlier work
β-YAC transgenic mice = test: Complete blood counts, differentials and reticulocytes in β-YAC mice (Studies 1 and 2); type: in vivo, mouse
Experimental: (§2) Each treatment group consisted of six mice per group (3 males and 3 females), and data was combined for 2 replicates for statistical analysis (n = 12). We collected tail vein blood at weeks 0, 2, and 4 and analyzed complete blood counts and differentials using an automated Micros 60 device (HORIBA Medical/ABX Diagnostics, Irvine, CA). The level of F-cells and mean fluorescence intensity (MFI) was determined by flow cytometry as previously published [28].

HbF [1] = test: Flow cytometry of F-cells and MFI in peripheral blood of β-YAC mice; type: in vivo, β-YAC transgenic mice; details: Study 1; HU 100 mg/kg; week 4; p < 0.001
Experimental: as §2
Flow cytometry was conducted on the FACSCanto machine (BD Biosciences, San Jose, CA) using gating parameters previously published by our group [28]. Briefly, the forward scatter and side scatter were set to gate erythroid cells, then during FLOWJO analysis, ‘log F-cell’‘ histograms (X-axis) generated to measure the percentage of HbF positive cells (F-cells) from total erythroid cells (Y-axis) after gating on the negative isotype control cells. The mean fluorescence intensity (MFI) to quantify the level of HbF protein per cell was generated by FLOWJO software.

Townes SCD mice [2] = test: Survival, weight and behavior of SCD mice (Study 3); type: in vivo, mouse; details: both replicates combined
Experimental: The study design was the same as in Studies 1 and 2, using SCD mice (4–6 months old) dosed once daily by IP injections, with water, HU (100 mg/kg), vehicle (FORM 3), CT-101 in FORM-3 (10 mg/kg), and combined HU and CT-101 administration. The study period was 4 weeks, and two independent replicates were combined for statistical analysis (n = 8–12). Blood collected at weeks 0, 2, and 4 were analyzed for complete blood count and differential, and F-cells and MFI quantified by flow cytometry. Blood stained with acridine orange (BD retic-count reagent) quantified reticulocytes by flow cytometry [31].

Townes SCD mice [3] = test: Complete blood counts, differentials and reticulocytes in SCD mice (Study 3); type: in vivo, mouse; details: HU 100 mg/kg; throughout the study; p < 0.01
Experimental: The study period was 4 weeks, and two independent replicates were combined for statistical analysis (n = 8–12). Blood collected at weeks 0, 2, and 4 were analyzed for complete blood count and differential, and F-cells and MFI quantified by flow cytometry. Blood stained with acridine orange (BD retic-count reagent) quantified reticulocytes by flow cytometry [31].

spleen = test: Spleen size and hematoxylin and eosin histology in SCD mice; type: in vivo, Townes SCD mice
Experimental: (§1) At the end of the 4-week treatment period, approximately 700 μL of blood was collected from each mouse into K3-EDTA tubes (Becton Dickinson, Franklin Lakes, NJ; catalog #365974) by cardiac puncture for plasma isolation after euthanasia using carbon dioxide gas. Subsequently, spleens were harvested for tissue stains, immunohistology, and protein isolation. A part of the spleen was fixed with buffered formaldehyde, embedded in paraffin, and sectioned into ~[…] thick slices for staining with hematoxylin and eosin for histology of spleen structures using a Keyence microscope (Keyence Itasca, IL). The immuno-histology staining was performed on frozen spleen sections using sheep polyclonal antibody against HbF conjugated with FITC (Life Technologies Corporation; catalog #A80-136F) and counterstained with DAPI (4′,6-diamidino-2-phenylindole) to identify the cell nucleus. The spleen tissue was analyzed using the EVOS cell imaging system (ThermoFisher, Waltham, MA) under x40 magnifications. The FITC-positive cells were counted for 15 high-power fields per section, and the mean average of the fields was used for statistical analysis.

HbF [4] = test: Immuno-histology of spleen with FITC anti-HbF antibody in SCD mice; type: in vivo, Townes SCD mice; details: end of four-week treatment
Experimental: as §1

micronuclei = test: Micronuclei assay in SCD mouse blood; type: in vivo, Townes SCD mice; details: end of treatment; p < 0.05
Excerpt: DNA was stained with propidium iodide/phycoerythrin for simultaneous measurement of cell viability, followed by FACSCAN flow cytometry analysis. Propidium iodide/phycoerythrin supplied in the MN analysis kit (Litron Laboratories, Rochester, NY; catalog #PLUS-M) was used as a positive control for CD71-FITC; the number of MN positive cells were counted in cell positive for CD71 and MN as previously published.

histone H3 and H4 = test: Western blot of histone acetylation in spleen of SCD mice; type: in vivo, Townes SCD mice; details: end of treatment
Experimental: The total splenic cells were processed for histone acetylation levels by Western blot as previously published by our group.
Acidic histone extraction was performed according to standard protocols described previously by our group. […] Western blot quantitative data were collected by densitometry analysis using Image J software.

[5] = Study 1, HU 100 mg/kg IP five days a week for four weeks

Row | Compound | HbF expression (HbF expression) | change in reticulocyte counts (β-YAC transgenic mice; Study 1, HU 100 mg/kg) | decrease in hematocrit (β-YAC transgenic mice; [5]) | decrease in hemoglobin (β-YAC transgenic mice; [5]) | decrease in platelets (β-YAC transgenic mice; [5]) | decrease in total white cell counts (β-YAC transgenic mice; [5]) | change in mean corpuscular volume of RBCs (β-YAC transgenic mice; Study 1, HU 100 mg/kg, p < 0.001) | effect on total white blood counts and platelets (β-YAC transgenic mice; Study 2, HU 100 mg/kg alone or with CT-101 10 mg/kg) | increase in F-cells (HbF [1]) | survival (Townes SCD mice [2]) | decrease in platelet counts (Townes SCD mice [3]) | decrease in overall spleen size (spleen; HU 100 mg/kg, four weeks, p < 0.01) | spleen histology (hematoxylin and eosin) (spleen; end of four-week treatment) | increase in HbF-positive erythroid cells in spleen tissue (HbF [4]) | increased production of micronuclei (micronuclei) | change in total or acetylated histone H3 and H4 levels in spleen (histone H3 and H4)
1 | O=C(CCCCCCC(=O)Nc1ccccc1)NO [Vorinostat] | did not induce HbF expression | – | – | – | – | – | – | – | – | – | – | – | – | – | – | –
2 | NC(=O)NO [HU, hydroxyurea] | – | increase | 12% | 12% | 30% | 24% | increasing | decrease | 5.4 fold | 83% | 50% | 37% | decrease in hemorrhagic infarcts and maturing extramedullary hematopoiesis | 1.8 fold | 1.8 fold | not statistically significance differences
